Laboratory results from patent US10881698B2, “Diagnosis and treatment for respiratory tract diseases” (THE TRUSTEES OF THE UNIVERSITY OF PENNSYLVANIA, priority 2012, dated 2021).
Residue numbers refer to the chain shown, from its start.

Experiments:
[1] = target: T1, AVI-TAS2R38 (Homo sapiens, UniProt P59533, A262V); experiment: Fluo-4 calcium mobilization in HEK293 cells expressing hTAS2R38 (AVI) and Gα16gustducin44; format: cell-based; conditions: 1 mM agonist; AVI variant
T1 construct: first 45 amino acids of rat SSTR-3 (N); host or cells: HEK293 (peakRapid), transient transfection, pcDNA3.1(+)
T1 sequence (P59533 1-333 A262V): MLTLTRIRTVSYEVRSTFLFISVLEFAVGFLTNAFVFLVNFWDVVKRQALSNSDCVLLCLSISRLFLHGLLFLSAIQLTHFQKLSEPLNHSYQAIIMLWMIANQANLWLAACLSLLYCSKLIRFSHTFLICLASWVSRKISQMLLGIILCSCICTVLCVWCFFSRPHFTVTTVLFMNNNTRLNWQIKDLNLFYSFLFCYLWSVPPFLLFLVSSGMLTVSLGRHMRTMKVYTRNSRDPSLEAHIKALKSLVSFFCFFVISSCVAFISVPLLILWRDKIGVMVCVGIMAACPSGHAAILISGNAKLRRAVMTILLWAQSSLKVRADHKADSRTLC

[2] = test system: T2R38; experiment: NO metabolites in airway surface liquid by chemiluminescence; format: cell-based, human; conditions: 1 mM PTC; 20 min
Experimental: (§1) ASL from stimulated and unstimulated cultures (20 μL total volume for each) was collected after 20 min at 37° C. and frozen at −20° C. and protected from light until analysis. NO-metabolites were evaluated by reduction of metabolites with acidified-heated vanadium to nitric oxide and detection of nitric oxide by chemiluminescence on the Sievers 280 nitric oxide analyzer. Samples were injected into a custom made purge container containing 0.05 M Vanadium chloride in 1 N HCl heated to 95° C. The reading in millivolts was compared to a standard curve generated by injecting standard solutions of nitrate. This reductive method reports on the total levels of nitrate, nitrite, N-nitroso and iron-nitrosyl adducts as well as low molecular weight and protein S-nitrosothiol adducts.
(§2) The antibacterial properties of NO help maintain the sterility of the sinonasal airways. […] NO diffusion into the ASL was quantified by measuring NO-derived byproducts in 20 μL of airway surface liquid from cultures stimulated with 1 mM PTC (or PBS alone) for 20 min using reductive chemistries coupled with chemiluminescence detection of nitric oxide (FIG. 20A). ASL levels of NO metabolites (nitrate, nitrite, N-nitroso and iron-nitrosyl adducts as well as low molecular weight and protein S-nitrosothiol adducts) were not different in unstimulated PAV/PAV and AVI/AVI cultures (0.41±0.13 pmol/μL for PAV/PAV and 0.66±0.33 for AVI/AVI; n.s. vs PAV/PAV). However, the increase observed in PTC-stimulated PAV/PAV cultures was >2-fold larger than that observed in AVI/AVI cultures (FIG. 20A). In PTC stimulated cultures, NO metabolites in the ASL over 20 minutes were 4.37 pmol/μL (PAV/PAV; P<0.001 vs unstimulated PAV/PAV) and 1.72 pmol/μL (AVI/AVI; P<0.01 vs stimulated PAV/PAV; n.s. vs unstimulated AVI/AVI).

[3] = target: T2, T2R38 (Homo sapiens, UniProt P59533, A49P/I296V); experiment: as above; format: cell-based; conditions: 1 mM PTC; PAV/PAV
T2 construct: T2R38 is expressed in human upper airway epithelium; endogenous in cells; host or cells: primary human sinonasal epithelial cells, air-liquid interface cultures from surgical patients
T2 sequence (P59533 1-333 A49P/I296V): T1 sequence (P59533 1-333 A262V) with A49P, V262A, I296V
Experimental: as §1, §2

[4] = target: T3, T2R38 (Homo sapiens, UniProt P59533, A262V); experiment: as above; format: cell-based; conditions: 1 mM PTC; AVI/AVI
T3 construct: T2R38 is expressed in human upper airway epithelium; endogenous in cells; host or cells: primary human sinonasal epithelial cells, air-liquid interface cultures from surgical patients
T3 sequence (P59533 1-333 A262V): T1 sequence (P59533 1-333 A262V)
Experimental: as §1, §2

[5] = target: T4, PAV-TAS2R38 (Homo sapiens, UniProt P59533, A49P/I296V); experiment: Fluo-4 calcium mobilization in HEK293 cells expressing hTAS2R38 (PAV) and Gα16gustducin44; format: cell-based; conditions: 1 mM agonist; PAV variant
T4 construct: first 45 amino acids of rat SSTR-3 (N); host or cells: HEK293 (peakRapid), transient transfection, pcDNA3.1(+)
T4 sequence (P59533 1-333 A49P/I296V): T1 sequence (P59533 1-333 A262V) with A49P, V262A, I296V

[6] = test system: acutely dissociated sinonasal ciliated epithelial cells; experiment: Ca2+ and DAF-FM responses in acutely dissociated sinonasal ciliated cells; format: cell-based, human
[7] = test system: T2R38; experiment: Fluo-4 Ca2+ imaging in primary human sinonasal ALI cultures; format: cell-based; conditions: 1 mM PTC; PAV/AVI cultures
[8] = target: T2, T2R38; experiment: as above; format: cell-based; conditions: 1 mM PTC; PAV/PAV cultures
[9] = target: T3, T2R38; experiment: as above; format: cell-based; conditions: 1 mM PTC; AVI/AVI cultures
[10] = target: T2, T2R38; experiment: DAF-2/Texas Red dextran ratio assay of NO secretion into ASL; format: cell-based; conditions: 1 mM PTC, PAV/PAV
Experimental: (§3) For measurement of NO secretion, a protocol was developed in which a solution of Texas Red Dextran (an NO-insensitive cell-impermeant dye) and DAF-2 (an NO-sensitive cell-impermeant dye) were added in a small volume (10 μl) to the apical surface of the cultures. The ratio of DAF-2/Texas Red fluorescence was recorded using wide-field epifluorescence microscopy at baseline and after incubation at 37° C. for the indicated times. This experiment was validated by addition of DETA-NONOate, an NO donor that releases 2 moles of NO per mole of parent molecule. DETA-NONOate was added on top of ALI cultures in pH 5 buffer to stimulate rapid decomposition. Imaging was performed using a Nikon 20×0.5 NA PlanFluor objective and 100 W mercury arc lamp with filters from Chroma Technologies (Rockingham, Vt.). Green filter contained a 480/40 nm band-pass [bp] excitation filter (reported as max transmission wavelength/filter width at half maximal transmission), a 505 nm dichroic mirror, and a 535/40 nm by emission filter. Red filter set contained a 560/40 nm by excitation filter, 595 dichroic mirror, and 630/60 nm by emission filter.
(§4) We also utilized a fluorescence-based assay to measure NO diffusion into the ASL. The apical surface of cultures was overlaid with a small volume (10 μl) of phosphate-buffered saline with or without 1 mM PTC containing 2 spectrally distinct cell-impermeant dyes, the NO-sensitive 4,5-diaminofluorescence diacetate (DAF-2) and the NO-insensitive Texas Red dextran ([…] MW); a ratiometric measurement was used to eliminate any artifacts due to expansion or contraction of ASL volume. The ratio of DAF-2/Texas Red fluorescence was recorded by fluorescence microscopy after 5, 30 and 60 min incubations at 37° C. […] We utilized this assay to determine if exposure to Pseudomonas and their secretions was sufficient to cause epithelial cells to produce NO with subsequent diffusion into the ASL. Log-phase cultures of PAO1 and PAO-JP2 were resuspended in PBS and placed on the ALI surface in the presence of DAF-2 and Texas Red.

[11] = target: T3, T2R38; experiment: as above; format: cell-based; conditions: 1 mM PTC, AVI/AVI
Experimental: as §3, §4

NC(=S)Nc1ccccc1 [PTC, phenylthiocarbamide]
Peak Fluo-4 fluorescence (ΔF/F) [1]: −4±1%
Increase in NO metabolites, PTC-stimulated PAV/PAV relative to AVI/AVI cultures [2]: > 2 fold
NO metabolites in the ASL over 20 minutes [3]: 4.37 pmol/µL
NO metabolites in the ASL over 20 minutes [4]: 1.72 pmol/µL
Peak Fluo-4 fluorescence (ΔF/F) [5]: 114±4%
Ca2+ responses in acutely dissociated sinonasal ciliated cells [6]: occurred
Fluo-4 fluorescence after 5 min PTC [7]: 1.14±0.035
Fluo-4 fluorescence after 5 min PTC [8]: 1.30±0.027
Fluo-4 fluorescence after 5 min PTC [9]: 1.06±0.02
DAF-2/Texas Red Dextran fluorescence ratio after PTC stimulation ([10]; 5 min): 0.46±0.10
DAF-2/Texas Red Dextran fluorescence ratio after PTC stimulation ([10]; 30 min): 1.55±0.17
DAF-2/Texas Red Dextran fluorescence ratio after PTC stimulation ([10]; 60 min): 2.52±0.76
DAF-2/Texas Red Dextran fluorescence ratio after PTC stimulation ([11]; 5 min): 0.54±0.1
DAF-2/Texas Red Dextran fluorescence ratio after PTC stimulation ([11]; 30 min): 0.71±0.1
DAF-2/Texas Red Dextran fluorescence ratio after PTC stimulation ([11]; 60 min): 0.90±0.3
